Data as given in PubChem BioAssay (NCI).
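Exposure lasted 48 hours, with cells grown in 96-well plates and compounds tested at five concentrations. GI50 marks 50% less growth. Definition used: TGI = concentration required for complete inhibition of growth.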

Experiments:
Assay in all cases: NCI anticancer screen, dose series, 48 h
K-562 leukemia = test system: K-562 leukemia
SF-539 CNS = test system: SF-539 CNS
A549 NSCLC = test system: A549 NSCLC
HCT-15 colon = test system: HCT-15 colon
SK-MEL-5 melanoma = test system: SK-MEL-5 melanoma
NCI-H460 lung = test system: NCI-H460 lung
SK-OV-3 ovarian = test system: SK-OV-3 ovarian
LOX IMVI melanoma = test system: LOX IMVI melanoma
PC-3 prostate = test system: PC-3 prostate
HT29 colon = test system: HT29 colon

SMILES	GI50 (K-562 leukemia) [µM]	TGI (K-562 leukemia) [µM]	GI50 (SF-539 CNS) [µM]	TGI (SF-539 CNS) [µM]	GI50 (A549 NSCLC) [µM]	TGI (A549 NSCLC) [µM]	GI50 (HCT-15 colon) [µM]	TGI (HCT-15 colon) [µM]	GI50 (SK-MEL-5 melanoma) [µM]	TGI (SK-MEL-5 melanoma) [µM]	GI50 (NCI-H460 lung) [µM]	TGI (NCI-H460 lung) [µM]	GI50 (SK-OV-3 ovarian) [µM]	TGI (SK-OV-3 ovarian) [µM]	GI50 (LOX IMVI melanoma) [µM]	TGI (LOX IMVI melanoma) [µM]	GI50 (PC-3 prostate) [µM]	TGI (PC-3 prostate) [µM]	GI50 (HT29 colon) [µM]	TGI (HT29 colon) [µM]
CN[C@H]1CN(c2ccc3c(=O)c(C(=O)O)cn(-c4nccs4)c3n2)C[C@@H]1OC	0.632	5.81	0.592	4.14	0.511	2.76	1.13	7.72	0.831	2.23	0.133	1.53	1.08	5.29	0.266	3.4	1.65	19.4	1.04	4.2
O=C(CN(/C=C/C(=O)C(F)(F)F)c1ccc(Cl)cc1)c1ccc(Cl)cc1	5.93	32.5	19.2	36.9	13.2	32.1	6.83	20.4	11.6	24.3	11.9	35.3	17.9	33.5	4.61	20.9	12.9	26.5	7.41	> 100
Nc1nc(/C=C\c2ccc([N+](=O)[O-])s2)nc(N2CCN(c3ccccc3)CC2)n1	15.3	49.5	40.9	> 100	33.6	> 100	14.6	28.3	0.157		24.1	59.1	30.7	62.5	15.7	29.1	21.9	63.7	27.5	70.4
COc1cc2c(cc1OC(C)C)[C@H](c1ccc(Cl)cc1)N(c1ccc(N(C)CC3CCC(N4CCN(C)C(=O)C4)CC3)cc1)C(=O)C2 (stereo partly drawn)	3.56	16.9	1.64	3.21	0.537	5.24	1.95	5.79	1.44	2.84	0.531	4.43	4.05	8.86	0.516	2.19	1.98	5.51	2.7	7.79
Clc1c(Cl)[n+](Cc2ccc3ccccc3c2)cn1Cc1ccc2ccccc2c1	1.71	3.73	1.57	2.98	3.32	11.7	1.82	3.62	1.13	2.39	1.53	2.98	1.39	3.75	1.26	2.52	1.46	2.87	0.57	2.01
CNC(=O)c1c(C)oc2cc(Oc3ncnc4cc(OC)c(OC)cc34)ccc12	> 100	> 100	2.03	> 100	> 100	> 100	> 100	> 100	> 100	> 100	> 100	> 100	> 100	> 100	> 100	> 100	> 100	> 100	> 100	> 100
Cc1c(-c2cnccn2)ssc1=S		> 100		> 100		> 100		> 100		> 100		> 100		93		98.8		> 100		> 100
O=c1oc2ccc(I)cc2c(=O)n1-c1ccc(Br)cc1F	0.536	> 71.7	0.632	4.99	2.82	> 39.7	1.28	7.89	0.317	1.04	0.5	10.6	0.614	2.97	0.626	5.86	1.94	6.89	3.3	13.5
CCc1nc(N)nc(N)c1-c1ccc(Cl)c([N+](=O)[O-])c1		> 100		51.4		> 100		> 100		48.8		> 100		> 100		> 100		> 100		> 100
COc1ccc2c(c1)C(=O)c1c-2n(CCCN(C)C)c(=O)c2ccccc12	0.287	17.5	0.282	0.979	0.119	0.559	0.25	3.95	0.123	0.406	0.0517	0.454	0.382	3.14	0.162	1.01	0.436	8.07	0.275	10.9
COc1ccc(/C=C\c2cc(OC)c(OC)c(OC)c2)cc1OCC(=O)Nc1nc2ccc(F)cc2s1	3.62	> 100	4.51	> 100	5.99	> 100	8.19	> 100	1.76	8.96	4.31	> 100	8	> 100	3.23	> 100	6.74	> 100	9.63	> 100
O=C(O)CCNCC(=O)O		> 100		> 100		> 100		> 100		> 100		> 100		> 100		> 100		> 100		> 100
CCOC(=O)C1=CCCC[C@H]1S(=O)(=O)Nc1ccc(F)cc1Cl	26.4	> 100	22.8	55.2	35.4	> 100	20.3	> 100	10.5	24.5	22.4	82.1	47.6	> 100	22.7	> 100	34	> 100	41.1	> 100
COc1ccc(C2(Cl)c3ccccc3N(c3ccccc3)c3ccccc32)cc1	0.335	12	0.519	1.95	0.407	2.9	0.909	10.8	0.266	1.31	0.484	1.94	0.495	2.74	0.282	1.32	0.238	4.11	0.306	2.3
COc1c/c(=C2\C=c3ccccc3=N2)[nH]/c1=C\c1[nH]c(C)cc1C	0.0685	8.33	0.0466	4.19	0.139	19.2	< 0.0225	4.33	< 0.0105	0.0352	0.0268	> 100	1.54	> 88.7	< 0.01		0.12	31.3	< 0.01	> 100
